Reference: patent US20120022121A1, “INDOLES, DERIVATIVES AND ANALOGS THEREOF AND USES THEREFOR” (priority 2007, published 2012)
Read-outs that look alike come from different tables or passages of the source.

Assays:
Bcl-2 = test: Western blot of anti- and pro-apoptosis proteins; type: cell-based, human; details: LNCaP and PC-3, increasing concentration, 24 h
Protocol: (§1) Cell viability (LNCaP, PC-3 prostate, DU145, PPC-1, and TSU-Pr1 prostate cancer cell lines, HT-29 colon cancer cell line, and MCF-7 breast cancer cell line) was quantitated using the sulforhodamine B (SRB) assay after 96 h coincubation with different concentrations of compound in 96-well plates. Cell viability of leukemia cells (K562 and doxorubicin-resistant K562/Dox) was quantitated by MTT assay after 96 h coincubation with different concentrations of compound in 96-well plates. Drug-induced apoptosis was determined by anti-histone ELISA assay and DNA laddering. Cell cycle progression was assessed by propidium iodide staining and fluorescence-activated cell sorting (FACS) analysis. In vitro tubulin polymerization assay was determined by CytoDYNAMIX ScreenTM3 (CDS-03) kits according to the manufacturer's instructions. Anti-apoptosis protein (Bcl-2 and Bcl-xl) and pro-apoptosis protein (Bax) were examined in LNCaP and PC-3 after 24 h incubation with different concentrations of compound 13 by Western blot assay. In vivo PC-3 xenograft studies were conducted by i.v. dosing of 50 mg/kg, 100 mg/kg and 150 mg/kg for 2 weeks.
100 nM of compound 13 was incubated with LNCaP for 24 h and PC-3 for 48 h. […] The results are expressed as enrichment factor (Enrichment factor=OD of treated cells/OD from control cells). […]

[1] = Plasma pharmacokinetics in mice; type: in vivo; details: for bioavailability: read-out: absolute bioavailability
Protocol: A single dose (10 mg/kg) and various routes of administration (intravenous, oral, and subcutaneous) were used in order to approximate its in vivo disposition and interpret the results of subchronic toxicity studies and forthcoming in vivo xenograft studies. Diindole 13 was administered to groups (n=60) of mice for each route of administration. Mice (n=5 per time point) were sacrificed at up to twelve different time points (pre-dose and up to 24 h post-dose), and plasma samples were stored at −80° C. until HPLC analysis. An HPLC/UV analytical method was developed and validated to determine diindole 13 concentrations in plasma, with a linear range of 0.02 to 20 μg/mL and intra- and inter-day coefficients of variation at all concentrations less than 6%.

[2] = Subchronic toxicity in ICR mice; type: in vivo
From the text: The maximally tolerated dose (MTD) in the mouse was identified. […] Body weight changes and morbidity in treated animals were used as a direct measure of toxicity.

Tubulin proteins = test: Tubulin polymerization in vitro (absorbance 340 nm); type: biochemical; details: 20 μM, 37° C., 30 minutes
Protocol: as §1, with “Anti-apoptosis protein (Bcl-2 and Bcl-xl) and pro-apoptosis protein (Bax) were examined in LNCaP and PC-3 after 24 h incubation with different concentrations of compound 13 by Western blot assay. In vivo PC-3 xenograft studies were conducted by i.v. dosing of 50 mg/kg, 100 mg/kg and 150 mg/kg for 2 weeks.” left out
Tubulin proteins (greater than 99% purity) were suspended (300 μg per sample) with 100 μl G-PEM buffer composed of 80 mM PIPES (piperazine-N,N′-bis(2-ethanesulfonic acid)), 2 mM MgCl2, 0.5 mM egtazic acid and 1.0 mM guanosine triphosphate (GTP), pH 6.9, plus 5% glycerol in the absence or presence of the compound 13 at 4° C. The sample mixture was transferred to the prewarmed 96-well plate and absorbance was detected each minute for 30 minutes at 340 nm at 37° C.

LNCaP = test: Growth inhibition assay (SRB, 96 h); type: cell-based; details: Homo sapiens
From the text: (§2) MTT (3-(4,5-dimethylthiazol-2-yl)-2,5-diphenyltetrazolium bromide) assay was also used for the leukemia cell lines. […] Cells were stained with SRB solution or MTT solution.

PPC-1 = test: Growth inhibition assay (SRB, 96 h); type: cell-based; details: Homo sapiens, PPC-1, 96 h
From the text: as §2

DU-145 = test: Growth inhibition assay (SRB, 96 h); type: cell-based; details: Homo sapiens, DU-145, 96 h
From the text: as §2

[3] = mouse, plasma, iv, 10 mg/kg, I.V.
[4] = mouse, plasma, po, 10 mg/kg, P.O.
[5] = mouse, plasma, sc, 10 mg/kg, S.C.

In the case of `O=C(c1cccc(-c2cc3ccccc3[nH]2)c1)c1cc2ccccc2[nH]1` [Compound 13, (1H-indol-2-yl)-[3-(1H-indol-2-yl)phenyl]methanone], the “Bcl-2 level by Western blot” value (Bcl-2) is reported as “decreased”, the “metabolism (LC/MS/MS analysis of metabolites)” value [1] is reported as “extensive oxidative metabolism with subsequent sulfation” and the “volume of distribution relative to total body water (0.6 L/kg)” value [1] is reported as “about 10 fold”. The F ([1]; 10 mg/kg, I.V.) was 1.00, the CL ([1]; 10 mg/kg, P.O.) was 238 mL/min/kg and the F ([1]; 10 mg/kg, P.O.) was 0.20. The CL ([1]; 10 mg/kg, S.C.) was 95 mL/min/kg, the F ([1]; 10 mg/kg, S.C.) was 0.73 and the “drug excreted unchanged in urine and feces” value ([1]; after intravenous administration) was “less than 5%”. For the same compound, the hepatic extraction ([1]; from clearance and hepatic blood flow […]) was “exceeding 0.75”, the bioavailability ([1]; mouse, plasma, 10 mg/kg, oral (P.O.)) was 29% and the AUC [1, 3] was 2410 ng·h/mL. It also gave a Cmax [1, 3] of 2860 ng/mL, a Tmax [1, 3] of 0.08 h and a clearance [1, 3] of ~66.7 mL/min/kg. The half-life [1, 3] was < 3 h, the Vd ([1]; mouse, plasma, iv, 10 mg/kg, I.V., read-out: Vss) was 6.35 L/kg and the AUC [1, 4] was 690 ng·h/mL. It also gave a Cmax [1, 4] of 120 ng/mL, a Tmax [1, 4] of ~3 h and a half-life [1, 4] of 2.97 h. For the same compound, the AUC [1, 5] was 1770 ng·h/mL, the Cmax [1, 5] was 310 ng/mL and the Tmax [1, 5] was ~3 h. The half-life [1, 5] was 4.52 h, the bioavailability ([1]; mouse, plasma, sc, 10 mg/kg, subcutaneous (S.C.)) was 73% and the tolerability ([2]; 50, 100 and 200 mg/kg S.C., 4 weeks, 5-days on/2 days off) was “generally well tolerated”. The “morbidity or rate of gain in body weight vs control” value ([2]; 50 or 100 mg/kg S.C., 4 weeks) was “no significant difference”, the “less body weight gain as compared to control animals” value ([2]; highest dose (200 mg/kg) S.C., 4-week treatment) was 20% and the “effect on tubulin polymerization” value (Tubulin proteins) was “completely block”.
`COc1cc(C(=O)c2cccc(-c3cc4ccccc4[nH]3)c2)cc(OC)c1OC` [Compound 68, [3-(1H-Indol-2-yl)-phenyl]-(3,4,5-trimethoxy-phenyl)-methanone] gave an IC50 (LNCaP) of 30.9 ± 3.5 nM, an IC50 (PPC-1) of 18.7 ± 1.5 nM and an IC50 (DU-145) of 22.8 ± 4.1 nM.
